Assay results from patent US9139543B2, “Thiazole compounds and uses thereof” (Institute of Pharmacology and Toxicology Academy of …, priority 2012, dated 2015).

The compounds below were run on myocardial cells (assay: Activity of preventing cardiomyocyte apoptosis induced by TM (MTT cell survival)). Conditions: Cardiomyocyte, primary neonatal rat myocardial cells, compound 30 min before TM 0.5 μg/ml, 48 h, read-out: Protection effects against cardiomyocyte apoptosis induced by TM, EC50.
Assay type: cell-based, Neonatal Wistar rats
Experimental: Neonatal Wistar rats newborn within 24 h, not confined to female or male (provided by the Center of Laboratory Animals, Academy of Military Medical Science of the PLA, animal certificate No.: SCXK-( ? ) 2007-004). High-sugar DMEM culture medium, trypsinase, and type II collagenase purchased from Gibco Company; fetal bovine serum (FBS) purchased from Beijing Yuanhengshengma Biological Technology Institute; 5-bromo-2-deoxyuridine (5-Brdu), tunicamycin (TM) purchased from Sigma Company; thiazolyl blue (MTT), dimethyl sulfoxide (DMSO) which is the product of Amresco; other chemical agents were all analytical pure and made in China. Universal Microplate ReaderEL800 type of ELIASA was a product of BIO-TEK Company of US.
neonatal Wistar rats newborn within 24 h were used, skin of abdomen was sterilized with iodine and alcohol. Tissue of ventricular apex was taken out with aseptic operation, cut into pieces with 1 mm^3 size, added with suitable amount of 0.125% pancretin and 0.1% collagenase II (final concentration was respectively 0.1% and 0.02%), mechanical shaking in 37° C. water-bath, 10 min each time, digested repeatedly until the tissue pieces were completely digested. The prepared myocardial cell suspension was inoculated in a 75 cm^2 culture flask. Non-myocardial cells were removed by differential adhesion method. The myocardial cell density was adjusted with DMEM culture medium containing 10% FBS, inoculated to a 96-well plate in an amount of 10^4/ml, placed in 5% CO2 incubator at 37° C. for 24 h for primary culture. Half medium was replaced after 24 h, a culture medium containing 0.1% 5-Brdu (5-bromo-2-deoxyuridine) was replenished to inhibit the growth of non-myocardial cells. The medium was replaced once per 48 h for primary culture.
Measurement of compound activity: myocardial cells were cultured for 4 days, respectively treated with compound in different concentrations (0.3 μM, 1 μM, 3 μM) for 30 min, then added with TM to final concentration of 0.5 μg/ml (TM group with final concentration of 0.5 μg/ml and solvent control group (DMSO) were set at the same time), and placed in 37° C., 5% CO2 incubator and cultured for 48 h, then each well was added with 10 μl of MTT (5 mg/ml) and continuously incubated for 4 h, finally each well was added with 100 μL of 10% SDS, incubated at 37° C., 5% CO2 for 24 h, so that MTT crystal was completely dissolved. ELISA was used to measure light absorbance of each well under 550 nm wavelength, in which TM and the compound of the present invention were formulated with DMSO. The formula is: cell survival rate (%)=OD value of administration group/average OD value of solvent control well×100%. The results were expressed in x±SD, and EC50 values (Table 1) were calculated with software, so that the effect of compound of the present invention preventing cardiomyocyte apoptosis induced by TM was determined.
Work on `O=C(/C=C/c1ccccc1)NC(Nc1nc(-c2ccc(Cl)cc2)cs1)C(Cl)(Cl)Cl` (stereo not shown) [Example 5, (2E)-3-(2-phenyl)-N-[1-(4-chlorophenyl-2-thiazolyl)-2,2,2-trichloroethyl]-2-acrylamide] yielded an EC50 of 0.3 µM. `O=C(/C=C/c1ccccc1)NC(Nc1nc(-c2ccccc2)c(-c2ccccc2)s1)C(Cl)(Cl)Cl` (stereo not shown) [Example 2] gave an EC50 of 47 µM. `COc1ccc(-c2csc(NC(NC(=O)/C=C/c3ccccc3)C(Cl)(Cl)Cl)n2)cc1` (stereo not shown) [Example 3, (2E)-3-(2-phenyl)-N-[1-(4-methoxyphenyl-2-thiazolyl)-2,2,2-trichloroethyl]-2-acrylamide] showed an EC50 of 61 µM. `COc1ccc(-c2nc(NC(NC(=O)/C=C/c3ccccc3)C(Cl)(Cl)Cl)sc2-c2ccccc2)cc1` (stereo not shown) [Example 1] showed an EC50 of 100 µM. For `O=C(/C=C/c1ccccc1)NC(Nc1nc(-c2ccc(F)cc2F)cs1)C(Cl)(Cl)Cl` (stereo not shown) [Example 4, (2E)-3-(2-phenyl)-N-[1-(2,4-difluorophenyl-2-thiazolyl)-2,2,2-trichloroethyl]-2-acrylamide], the EC50 was 0.8 µM. Work on `O=C(/C=C/c1ccccc1)NC(Nc1nc(-c2ccccc2)cs1)C(Cl)(Cl)Cl` (stereo not shown) [Example 6] yielded an EC50 of 30 µM.

Same assay, conditions: primary neonatal rat myocardial cells, TM 0.5 μg/ml
For `O=C(/C=C/c1ccccc1)NC(Nc1nc(-c2ccc(Cl)cc2)cs1)C(Cl)(Cl)Cl` (stereo not shown) [Example 5, (2E)-3-(2-phenyl)-N-[1-(4-chlorophenyl-2-thiazolyl)-2,2,2-trichloroethyl]-2-acrylamide], the “Protection effects against cardiomyocyte apoptosis induced by TM (in words)” value was “good protection effects”.
